Assay results reported in ChEMBL document CHEMBL2046413, “Iridoid glucosides and a C₁₃-norisoprenoid from Lamiophlomis rotata and their effects on NF-κB activation” (Bioorg Med Chem Lett, 2012).

Legend:
HEK293 [1] = experiment: Inhibition of LPS-induced NF-KB transcriptional activity expressed in HEK-293 cells at 1 ug/ml after 4 hrs by luciferase reporter gene assay relative to LPS-treated group; format: cell-based
HEK293 [2] = experiment: Inhibition of LPS-induced NF-KB transcriptional activity expressed in HEK-293 cells at 10 ug/ml after 4 hrs by luciferase reporter gene assay relative to LPS-treated group; format: cell-based
HEK293 [3] = experiment: Inhibition of LPS-induced NF-KB transcriptional activity expressed in HEK-293 cells at 100 ug/ml after 4 hrs by luciferase reporter gene assay relative to LPS-treated group; format: cell-based
HEK293 [4] = experiment: Inhibition of NF-KB production in human HEK293 cells by BCA protein assay; format: functional, cell-based

## COC(=O)C1=CO[C@@H](O[C@@H]2O[C@H](CO)[C@@H](O)[C@H](O)[C@H]2O)[C@@H]2[C@@]3(C)O[C@H]3[C@@H](O)[C@]12O
HEK293 [1]
  NF-κB luciferase activity relative to LPS-treated group: 0.15
HEK293 [2]
  RLU: 0.14
HEK293 [3]
  NF-κB luciferase activity relative to LPS-treated group: 0.36

## C=C1C[C@@H](O)[C@@H]2C(C(=O)OC)=CO[C@@H](O[C@@H]3O[C@H](CO)[C@@H](O)[C@H](O)[C@H]3O)[C@H]12
HEK293 [1]
  NF-κB luciferase activity relative to LPS-treated group: 0.26
HEK293 [2]
  RLU: 0.43
HEK293 [3]
  NF-κB luciferase activity relative to LPS-treated group: 0.4

## CCCCO[C@@H]1C=C(C)[C@H]2[C@H](O[C@@H]3O[C@H](CO)[C@@H](O)[C@H](O)[C@H]3O)OC=C(C(=O)OC)[C@H]21
HEK293 [1]
  NF-κB luciferase activity relative to LPS-treated group: 0.15
HEK293 [2]
  RLU: 0.38
HEK293 [3]
  NF-κB luciferase activity relative to LPS-treated group: 0.48
HEK293 [4]
  inhibition: Dose-dependent effect

## COC(=O)C1=CO[C@@H](O[C@@H]2O[C@H](CO)[C@@H](O)[C@H](O)[C@H]2O)[C@@H]2C(C)=C[C@@H](O)[C@H]12
HEK293 [1]
  NF-κB luciferase activity relative to LPS-treated group: 0.5
HEK293 [2]
  RLU: 0.59
HEK293 [3]
  NF-κB luciferase activity relative to LPS-treated group: 0.68

## COC(=O)C1=CO[C@@H](O[C@@H]2O[C@H](CO)[C@@H](O)[C@H](O)[C@H]2O)[C@H]2[C@@H]1[C@H](O)C[C@]2(C)O
HEK293 [1]
  NF-κB luciferase activity relative to LPS-treated group: 0.39
HEK293 [2]
  RLU: 0.21
HEK293 [3]
  NF-κB luciferase activity relative to LPS-treated group: 0.31

## COC(=O)C1=CO[C@@H](O[C@@H]2O[C@H](CO)[C@@H](O)[C@H](O)[C@H]2O)[C@@H]2C(C)=C[C@@H](O)[C@]12O
HEK293 [1]
  NF-κB luciferase activity relative to LPS-treated group: 0.06
HEK293 [2]
  RLU: 0.18
HEK293 [3]
  NF-κB luciferase activity relative to LPS-treated group: 0.24
HEK293 [4]
  inhibition: Dose-dependent effect

## COC(=O)C1=CO[C@@H](O[C@@H]2O[C@H](CO)[C@@H](O)[C@H](O)[C@H]2O)[C@@H]2[C@@](C)(O)[C@H](O)[C@@H](O)[C@]12O
HEK293 [1]
  NF-κB luciferase activity relative to LPS-treated group: 0.18
HEK293 [2]
  RLU: 0.34
HEK293 [3]
  NF-κB luciferase activity relative to LPS-treated group: 0.31

## COC(=O)C1=CO[C@@H](O[C@@H]2O[C@H](CO)[C@@H](O)[C@H](O)[C@H]2O)[C@@H]2[C@H](C)[C@@H](O)C[C@H]12
HEK293 [1]
  NF-κB luciferase activity relative to LPS-treated group: 0.14
HEK293 [2]
  RLU: 0.13
HEK293 [3]
  NF-κB luciferase activity relative to LPS-treated group: 0.26

## COC(=O)C1=CO[C@@H](O[C@@H]2O[C@H](CO)[C@@H](O)[C@H](O)[C@H]2O)[C@H]2[C@@H]1[C@H](O)[C@H](O)[C@@]2(C)O
HEK293 [1]
  NF-κB luciferase activity relative to LPS-treated group: 0.37
HEK293 [2]
  RLU: 0.15
HEK293 [3]
  NF-κB luciferase activity relative to LPS-treated group: 0.38

## COC(=O)C1=CO[C@@H](O[C@@H]2O[C@H](CO)[C@@H](O)[C@H](O)[C@H]2O)[C@H]2[C@@H]1[C@H](OC(=O)c1cc(OC)c(O)c(OC)c1)C[C@]2(C)OC(C)=O
HEK293 [1]
  NF-κB luciferase activity relative to LPS-treated group: 0.12
HEK293 [2]
  RLU: 0.08
HEK293 [3]
  NF-κB luciferase activity relative to LPS-treated group: 0.42

## C[C@]12CCC(=O)C=C1CC[C@@H]1[C@@H]2[C@@H](O)C[C@@]2(C)[C@H]1CC[C@]2(O)C(=O)CO
HEK293 [1]
  NF-κB luciferase activity relative to LPS-treated group: 0.26
HEK293 [2]
  RLU: 0.32
HEK293 [3]
  NF-κB luciferase activity relative to LPS-treated group: 0.45

## COC(=O)C1=CO[C@@H](O[C@@H]2O[C@H](CO)[C@@H](O)[C@H](O)[C@H]2O)[C@H]2[C@@H]1[C@H](O)[C@@H]1O[C@]21C
HEK293 [1]
  NF-κB luciferase activity relative to LPS-treated group: 0.23
HEK293 [2]
  RLU: 0.46
HEK293 [3]
  NF-κB luciferase activity relative to LPS-treated group: 0.42

## COC(=O)C1=CO[C@@H](O[C@@H]2O[C@H](CO)[C@@H](O)[C@H](O)[C@H]2O)[C@H]2[C@@H]1[C@H](O)[C@H](O)[C@]2(C)O
HEK293 [1]
  NF-κB luciferase activity relative to LPS-treated group: 0.23
HEK293 [2]
  RLU: 0.19
HEK293 [3]
  NF-κB luciferase activity relative to LPS-treated group: 0.41

## COC(=O)C1=CO[C@@H](O[C@@H]2O[C@H](COC(=O)c3cc(OC)c(O)c(OC)c3)[C@@H](O)[C@H](O)[C@H]2O)[C@H]2[C@@H]1[C@H](O)[C@@H]1O[C@]21C
HEK293 [1]
  NF-κB luciferase activity relative to LPS-treated group: 0.55
HEK293 [2]
  RLU: 0.32
HEK293 [3]
  NF-κB luciferase activity relative to LPS-treated group: 0.48

## COC(=O)C1=CO[C@@H](O[C@@H]2O[C@H](CO)[C@@H](O)[C@H](O)[C@H]2O)[C@H]2[C@@H]1[C@H](O)C[C@]2(C)OC(C)=O
HEK293 [1]
  NF-κB luciferase activity relative to LPS-treated group: 0.13
HEK293 [2]
  RLU: 0.4
HEK293 [3]
  NF-κB luciferase activity relative to LPS-treated group: 0.34

## COC(=O)C1=CO[C@@H](O[C@@H]2O[C@H](CO)[C@@H](O)[C@H](O)[C@H]2O)[C@H]2[C@@H]1[C@H](O)[C@@H](Cl)[C@]2(C)O
HEK293 [1]
  NF-κB luciferase activity relative to LPS-treated group: 0.05
HEK293 [2]
  RLU: 0.19
HEK293 [3]
  NF-κB luciferase activity relative to LPS-treated group: 0.22

## COC(=O)C1=CO[C@@H](O[C@@H]2O[C@H](CO)[C@@H](O)[C@H](O)[C@H]2O)[C@@H]2[C@@](C)(O)[C@@H](O)[C@@H](O)[C@]12O
HEK293 [1]
  NF-κB luciferase activity relative to LPS-treated group: 0.56
HEK293 [2]
  RLU: 0.34
HEK293 [3]
  NF-κB luciferase activity relative to LPS-treated group: 0.49

## C=CC(C)(O)CC/C=C(\C)C(=O)O[C@@H]1C[C@](C)(OC(C)=O)[C@H]2[C@H](O[C@@H]3O[C@H](CO)[C@@H](O)[C@H](O)[C@H]3O)OC=C(C(=O)OC)[C@H]21 (stereo partly specified)
HEK293 [1]
  NF-κB luciferase activity relative to LPS-treated group: 0.25
HEK293 [2]
  RLU: 0.21
HEK293 [3]
  NF-κB luciferase activity relative to LPS-treated group: 0.31

## COC(=O)C1=CO[C@@H](O[C@@H]2O[C@H](CO)[C@@H](O)[C@H](O)[C@H]2O)[C@H]2[C@@H]1[C@H](OC(C)=O)C[C@]2(C)O
HEK293 [1]
  NF-κB luciferase activity relative to LPS-treated group: 0.06
HEK293 [2]
  RLU: 0.13
HEK293 [3]
  NF-κB luciferase activity relative to LPS-treated group: 0.11

## COC(=O)C1=CO[C@@H](O[C@@H]2O[C@H](CO)[C@@H](O)[C@H](O)[C@H]2O)[C@@H]2[C@H](C)CC[C@H]12
HEK293 [1]
  NF-κB luciferase activity relative to LPS-treated group: 0.23
HEK293 [2]
  RLU: 0.44
HEK293 [3]
  NF-κB luciferase activity relative to LPS-treated group: 0.62
HEK293 [4]
  inhibition: Dose-dependent effect

## COC(=O)C1=CO[C@@H](O[C@@H]2O[C@H](CO)[C@@H](O)[C@H](O)[C@H]2O)[C@@H]2[C@@H](C)[C@@H](O)C[C@H]12
HEK293 [1]
  NF-κB luciferase activity relative to LPS-treated group: 0.66
HEK293 [2]
  RLU: 0.56
HEK293 [3]
  NF-κB luciferase activity relative to LPS-treated group: 0.56
